Assay [1] concerns 4242Eμ-myc/Bcl-2 lymphomas. Put plainly: In vitro cell death analysis, time course. The format is cell-based, mouse. To be noted: 3.0 nmol/L; up to 72 h. The text has this:
The primary function of prosurvival Bcl-2 proteins is to inhibit the activity of Bak and Bax proteins and thereby protect the mitochondrial membrane from damage (Cory et al., Nat. Rev. Cancer 2:647-656, 2002). To determine if the induction of apoptosis mediated by romidepsin in 4242Eμ-myc/Bcl-2 and 229Eμ-myc/Bcl-2 lymphomas was via perturbation of the mitochondrial membrane or through some other mechanism, HDACi-induced mitochondrial outer membrane permeabilization (MOMP) was quantitated by staining with tetramethylrhodamine ethyl ester (Molecular Probes).
[…] Viability of cells as measured by trypan blue exclusion assay, propidium iodide uptake, Annexin V staining, cell cycle analysis, or tetramethylrhodamine ethyl ester staining were done as described (Lindemann et al., Proc. Nat. Acad. Sci. USA 104:8071-8078, 2007).

For assay [2], the system named is 226Eμ-myc/Bcl-2 lymphomas. Put plainly: In vitro cell death analysis, time course. Format: cell-based, mouse. Conditions: 3.0 nmol/L; up to 72 h.
The test system of assay [3] is 102Eμ-myc/Bcl-2 lymphomas. Put plainly: In vitro cell death analysis, time course. The format is cell-based, mouse. To be noted: 3.0 nmol/L; up to 72 h.
The subject of assay [4] is 102Eμ-myc/Bcl-2 lymphomas. Put plainly: In vivo apoptosis assay. More on the design: species or system C57BL/6 mice. To be noted: 5.6 mg/kg i.v.; even at 48 h. As for the experimental part: (§1) For in vivo apoptosis assays, C57BL/6 mice were injected with Eμ-myc lymphomas (5×10^5 cells per animal) and after 10 to 15 days on which lymph nodes became well-palpable romidepsin (5.6 mg/kg) was administered i.v. After the indicated time points, mice were sacrificed and cells were harvested from brachial lymph nodes for fluorescence-activated cell sorting-based assays to measure apoptotic signaling (Lindemann et al., Proc. Nat. Acad. Sci. USA 104:8071-8078, 2007). To assess therapeutic efficacy of romidepsin, C57BL/6 mice were injected with Eμ-myc lymphomas of the indicated genotypes i.v. (5×10^5 cells per animal). Peripheral WBC counts were then monitored until they exceeded 13×10^3/μL (Sysmex Hematology Analyzer K-1000) and romidepsin was administered at 5.6 mg/kg i.v. once every 4 days for a total of four injections. […] Mice in the control cohort received the corresponding amount of vehicle. Cohorts consisted of 8 to 11 mice each, 2 to 3 independently derived lymphomas per genotype. Peripheral WBC counts and body weights were recorded weekly. On signs of major distress or when lymphomas were relapsing as indicated by enlarged brachioaxial lymph nodes, mice were euthanized and a necropsy was done. For analysis of therapeutic efficacy, tumor-induced mortality “events” were recorded. Kaplan-Meier analysis was done and comparisons made using the log-rank (Mantel-Cox) test (MedCalc software version 8.0.2.0).

Assay [5] relates to 226Eμ-myc/Bcl-2 lymphomas. Kind of assay: In vivo apoptosis assay. On the set-up: species or system C57BL/6 mice. To be noted: 5.6 mg/kg i.v.; even at 36 h. As for the experimental part:
as §1

Assay [6] has as its system 229Eμ-myc/Bcl-2 lymphomas. Put plainly: In vivo apoptosis assay. On the set-up: species or system C57BL/6 mice. To be noted: 5.6 mg/kg i.v.; later time points (>24 h). How it is done:
as §1

The subject of assay [7] is 4242Eμ-myc/Bcl-2 lymphomas. Put plainly: In vivo apoptosis assay. More on the design: species or system C57BL/6 mice. To be noted: 5.6 mg/kg i.v.; later time points (>24 h). As for the experimental part:
as §1

The test system of assay [8] is Eμ-myc lymphomas. Kind of assay: In vivo apoptosis assay. On the set-up: species or system C57BL/6 mice. Conditions: all four Eμ-myc lymphomas in lymph nodes; 5.6 mg/kg i.v.; 24-h time course. How it is done:
as §1

Assay [9] concerns Eμ-myc/Bcl-2 lymphomas. Put plainly: In vivo apoptosis assay. More on the design: species or system C57BL/6 mice. Conditions: all four Eμ-myc/Bcl-2 lymphomas; 5.6 mg/kg i.v.; 24 h after exposure. As for the experimental part: as §1
For assay [10], the system named is 102Eμ-myc/Bcl-2 lymphomas. Kind of assay: In vivo therapy assay (Kaplan-Meier survival). More on the design: species or system C57BL/6 mice. Conditions: 5.6 mg/kg i.v. every 4 d, four doses. As for the experimental part:
(§2) FIG. 4. […] C57BL/6 mice (10 mice per group) bearing (FIG. 4A) 4242Eμ-myc, (FIG. 4B) 229Eμ-myc, (FIG. 4C) 226Eμ-myc, (FIG. 4D) 102Eμ-myc, (FIG. 4E) 4242Eμ-myc/Bcl-2, (FIG. 4F) 229Eμmyc/Bcl-2, (FIG. 4G) 226Eμ-myc/Bcl-2, and (FIG. 4H) 102Eμ-myc/Bcl-2, lymphomas were treated with romidepsin or vehicle. Therapy commenced after WBC counts reached ≧13×10^3/μL. Therapy consisted of either 5.6 mg/kg romidepsin (injected i.v. every 4 d for a total of four doses) or vehicle.
(§3) For therapy experiments, Eμ-myc lymphomas were transplanted into C57BL/6 mice and treatment with romidepsin or vehicle commenced when WBC counts in the peripheral blood reached a pathologic threshold (>13×10^3/μL).
as §1

The test system of assay [11] is 102Eμmyc lymphomas. Kind of assay: In vivo therapy assay (Kaplan-Meier survival). On the set-up: species or system C57BL/6 mice. To be noted: 5.6 mg/kg i.v. every 4 d, four doses; vehicle 14 d; P<0.0001. How it is done: as §2, §3, §1
Assay [12] relates to 226Eμ-myc lymphomas. Kind of assay: In vivo therapy assay (Kaplan-Meier survival). Conditions: 5.6 mg/kg i.v. every 4 d, four doses; vehicle 15 d; P<0.0001. On the set-up: species or system C57BL/6 mice. As for the experimental part:
as §2, §3, §1

In assay [13] the test system is 226Eμ-myc/Bcl-2 lymphomas. Put plainly: In vivo therapy assay (Kaplan-Meier survival). On the set-up: species or system C57BL/6 mice. To be noted: 5.6 mg/kg i.v. every 4 d, four doses. How it is done:
as §2, §3, §1

Assay [14] relates to 229Eμ-myc lymphomas. Put plainly: In vivo therapy assay (Kaplan-Meier survival). On the set-up: species or system C57BL/6 mice. Conditions: 5.6 mg/kg i.v. every 4 d, four doses; vehicle 20 days; P<0.0001. As for the experimental part:
as §2, §3, §1

In assay [15] the test system is 229Eμ-myc/Bcl-2 lymphomas. Kind of assay: In vivo therapy assay (Kaplan-Meier survival). To be noted: 5.6 mg/kg i.v. every 4 d, four doses. More on the design: species or system C57BL/6 mice. As for the experimental part: as §2, §3, §1
Assay [16] relates to 4242Eμ-myc lymphomas. Kind of assay: In vivo therapy assay (Kaplan-Meier survival). To be noted: 5.6 mg/kg i.v. every 4 d, four doses; vehicle 19 d; P<0.0003. More on the design: species or system C57BL/6 mice. How it is done:
as §2, §3, §1

Assay [17] relates to 4242Eμ-myc/Bcl-2 lymphomas. Put plainly: In vivo therapy assay (Kaplan-Meier survival). On the set-up: species or system C57BL/6 mice. Conditions: 5.6 mg/kg i.v. every 4 d, four doses. How it is done:
as §2, §3, §1

In assay [18] the test system is Eμ-myc lymphomas. Kind of assay: In vivo therapy assay (survival). On the set-up: species or system C57BL/6 mice. To be noted: 5.6 mg/kg i.v. every 4 d, four doses. As for the experimental part: as §3
For in vivo apoptosis assays, C57BL/6 mice were injected with Eμ-myc lymphomas (5×10^5 cells per animal) and after 10 to 15 days on which lymph nodes became well-palpable romidepsin (5.6 mg/kg) was administered i.v. After the indicated time points, mice were sacrificed and cells were harvested from brachial lymph nodes for fluorescence-activated cell sorting-based assays to measure apoptotic signaling (Lindemann et al., Proc. Nat. Acad. Sci. USA 104:8071-8078, 2007). To assess therapeutic efficacy of romidepsin, C57BL/6 mice were injected with Eμ-myc lymphomas of the indicated genotypes i.v. (5×10^5 cells per animal). Peripheral WBC counts were then monitored until they exceeded 13×10^3/μL (Sysmex Hematology Analyzer K-1000) and romidepsin was administered at 5.6 mg/kg i.v. once every 4 days for a total of four injections. […] Mice in the control cohort received the corresponding amount of vehicle. Cohorts consisted of 8 to 11 mice each, 2 to 3 independently derived lymphomas per genotype. Peripheral WBC counts and body weights were recorded weekly. […] For analysis of therapeutic efficacy, tumor-induced mortality “events” were recorded. […]

On to “(1S,4S,10S,16E,21R)-7-[(2Z)-ethylidene]-4,21-diisopropyl-2-oxa-12,13-dithia-5,8,20,23-tetraazabicyclo[8.7.6]tricos-16-ene-3,6,9,19,22-pentanone [Romidepsin]”, for which the “cell killing in time course” value in assay [1] was “could kill”; in assay [2], “remained relatively insensitive”; in [3] it was “remained relatively insensitive”. Besides, the apoptosis in vivo result was “remained insensitive” in [4]; “remained insensitive” in assay [5]; “did undergo apoptosis at later time points” in [6]; “did undergo apoptosis at later time points” in assay [7]; “resistant to romidepsin-induced apoptosis” in [9]. Also, the “apoptosis in vivo (outer cell membrane damage, DNA fragmentation)” value in assay [8] is on record as “sensitive to romidepsin”. In addition, the “therapeutic benefit (survival)” value in assay [10] and in assay [13] was “little or no therapeutic benefit” each time. The median survival in assay [10] (vehicle 11 d, P<0.07) was 14.5 days; in assay [11], 22 days; in assay [12], 19.5 days; in assay [13] (vehicle 16 d, P=0.86) it was 16 days; in assay [14] it was 30 days; in [15] (vehicle 18 d, P<0.0001), 30 days. Moreover, the median survival in [16] worked out at 28 days; in [17] (vehicle 12 d, P<0.0001), 22.5 days. Also, the entries for the “survival of mice compared with vehicle-treated mice” value in [15], in assay [17] and in assay [18] were “significantly extended the survival”, “significantly extended the survival” and “significantly extended”, respectively.

Values taken from patent publication US20110269699A1, “CANCER THERAPY” (priority 2008, published 2011).
